Test results taken from US20090252687A1, “ASYMMETRIC FLUORO-SUBSTITUTED POLYMETHINE DYES” (priority 2006, published 2009).

Assay: Photostability of the fluorescence signal
Format: physicochemical
Conditions: 1:1 methanol:water; Karl Storz Xenon 175 light source at 100% intensity for 30 min; fraction of dark control
Method: In a further example the photostability of the fluorescence signal was measured. The photostability of Compound 3 (the fluorinated Cy3F pyrylium of Example 19) was studied in comparison with a non-fluorinated analogue, Cy3 pyrylium (Compound C)
The dyes were dissolved in a 1:1 mixture of methanol:water to give an absorbance reading of 1Au at the dyes lambda max and then diluted 20 times for fluorescence measurements. The samples were exposed to light with a Karl Storz Xenon 175 light source at 100% intensity for 30 min. The cuvette was kept in a water bath while exposed to light, to avoid heating. Fluorescence measurements were made on Cary Eclipse (Varian) fluorescence spectrophotometer 1 cm cuvette, ex/em slit 5 nm

Row | Compound | max fluorescence intensity relative to the dark control (photostability)
1 | CN(C)c1ccc2c(c1)OC(C(C)(C)C)=C/C2=C\C=C\C1=[N+](CCCCCC(=O)O)c2c(F)c(F)c(F)c(F)c2C1(C)CCCCS(=O)(=O)[O-] (centres unmarked) [Compound 3, 4-[2-{(1E,3E)-3-[2-tert-butyl-7-(dimethylamino)-4H-chromen-4-ylidene]prop-1-enyl}-1-(5-carboxypentyl)-4,5,6,7-tetrafluoro-3-methyl-3H-indolium-3-yl]butane-1-sulfonate] | 0.94
2 | CN(C)c1ccc2c(c1)OC(C(C)(C)C)=C/C2=C\C=C\C1=[N+](CCCCCC(=O)O)c2ccc(S(=O)(=O)[O-])cc2C1(C)C [Compound C] | 0.79
